# Data from ChEMBL document CHEMBL3576799, “Aranciamycins I and J, Antimycobacterial Anthracyclines from an Australian Marine-Derived Streptomyces sp” (J Nat Prod, 2015).
# Tested on: Mycobacterium tuberculosis
# Test: Antimycobacterial activity against Mycobacterium bovis BCG
# Type: functional, organism-based
# Settings: variant bovis BCG
Structure (SMILES),IC50 [nM],MIC [µM]
CO[C@H]1[C@H](O[C@H]2C[C@](C)(O)C(=O)c3cc4c(c(O)c32)C(=O)c2c(O)cccc2C4=O)O[C@@H](C)[C@H](O)[C@H]1O,700,10
C[C@@H]1O[C@@H](O[C@H]2C[C@](C)(O)Cc3cc4c(c(O)c32)C(=O)c2c(O)cccc2C4=O)[C@H](O)[C@H](O)[C@H]1O,800,10
CO[C@H]1[C@H](O[C@H]2C[C@](C)(O)Cc3cc4c(c(O)c32)C(=O)c2c(O)cccc2C4=O)O[C@@H](C)[C@H](O)[C@H]1O,1100,30
CO[C@H]1[C@H](O[C@@H]2c3c(cc4c(c3O)C(=O)c3c(O)cccc3C4=O)C(=O)[C@@](C)(O)[C@H]2OC)O[C@@H](C)[C@H](O)[C@H]1O [ARANCIAMYCIN],1700,30
